# Assay results published in ChEMBL document CHEMBL1201862, “PubChem BioAssay data set” (2004).
#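 Each compound was tested at five concentrations against cells in 96-well plates for 48 hours. GI50 is the concentration that inhibits growth by half.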 The source made the active and inactive calls. Rule as the data show it: active = GI50 up to about 1.1 µM and inactive = higher.
# Experiments:
# Test in all cases: NCI-60 cell line screen, 48 h
# M19-MEL = system: M19-MEL
# U-251 = system: U-251
# SF-268 = system: SF-268
# OVCAR-3 = system: OVCAR-3
# OVCAR-4 = system: OVCAR-4
# SNB-19 = system: SNB-19
# ACHN = system: ACHN
# RXF 631 = system: RXF 631
# XF498 = system: XF498
# SN12C = system: SN12C
# K562 = system: K562
# HOP-62 = system: HOP-62
# EKVX = system: EKVX
# TK-10 = system: TK-10
# SK-MEL-5 = system: SK-MEL-5
# MOLT-4 = system: MOLT-4
# SNB-75 = system: SNB-75
# A498 = system: A498
# IGROV-1 = system: IGROV-1
# NCI-H23 = system: NCI-H23
# SF-539 = system: SF-539
# OVCAR-8 = system: OVCAR-8
# SK-OV-3 = system: SK-OV-3
# SNB-78 = system: SNB-78
# DMS-273 = system: DMS-273
# DLD-1 = system: DLD-1
# RPMI-8226 = system: RPMI-8226
# CAKI-1 = system: CAKI-1
# SF-295 = system: SF-295
# Malme-3M = system: Malme-3M
# SK-MEL-2 = system: SK-MEL-2
# DMS-114 = system: DMS-114
# SR = system: SR
# KM12 = system: KM12
# UACC-257 = system: UACC-257
# OVCAR-5 = system: OVCAR-5
# HOP-92 = system: HOP-92
# COLO 205 = system: COLO 205
# M14 = system: M14
# 786-0 = system: 786-0
# A549 = system: A549
# SK-MEL-28 = system: SK-MEL-28
# CCRF-CEM = system: CCRF-CEM
# LXFL 529 = system: LXFL 529
# UACC-62 = system: UACC-62
# HOP-18 = system: HOP-18
# LOX IMVI = system: LOX IMVI
# NCI-H226 = system: NCI-H226
# HT-29 = system: HT-29
# HCT-116 = system: HCT-116
# NCI-H522 = system: NCI-H522
# NCI-H460 = system: NCI-H460
# RXF 393 = system: RXF 393
# KM-20L2 = system: KM-20L2
# HCT-15 = system: HCT-15
# HCC 2998 = system: HCC 2998
# SW-620 = system: SW-620
# UO-31 = system: UO-31
# HL-60 = system: HL-60
smiles,measurement,setting,value
COc1ccc2c(c1)[n+]([O-])c(/C(C)=N/NC(=O)CC#N)c[n+]2[O-],GI50,M19-MEL,> 100 µM (inactive)
same,GI50,U-251,> 100 µM (inactive)
same,GI50,SF-268,> 100 µM (inactive)
same,GI50,OVCAR-3,> 100 µM (inactive)
same,GI50,OVCAR-4,> 100 µM (inactive)
same,GI50,SNB-19,> 100 µM (inactive)
same,GI50,ACHN,> 100 µM (inactive)
same,GI50,RXF 631,> 100 µM (inactive)
same,GI50,XF498,> 100 µM (inactive)
same,GI50,SN12C,> 100 µM (inactive)
same,GI50,K562,> 100 µM (inactive)
same,GI50,HOP-62,> 100 µM (inactive)
same,GI50,EKVX,> 100 µM (inactive)
same,GI50,TK-10,> 100 µM (inactive)
same,GI50,SK-MEL-5,> 100 µM (inactive)
same,GI50,MOLT-4,> 100 µM (inactive)
same,GI50,SNB-75,> 100 µM (inactive)
same,GI50,A498,> 100 µM (inactive)
same,GI50,IGROV-1,> 100 µM (inactive)
same,GI50,NCI-H23,> 100 µM (inactive)
same,GI50,SF-539,> 100 µM (inactive)
same,GI50,OVCAR-8,> 100 µM (inactive)
same,GI50,SK-OV-3,> 100 µM (inactive)
same,GI50,SNB-78,> 100 µM (inactive)
same,GI50,DMS-273,> 100 µM (inactive)
same,GI50,DLD-1,74.6 µM (inactive)
same,GI50,RPMI-8226,54.7 µM (inactive)
same,GI50,CAKI-1,35.2 µM (inactive)
same,GI50,SF-295,> 100 µM (inactive)
same,GI50,Malme-3M,> 100 µM (inactive)
same,GI50,SK-MEL-2,> 100 µM (inactive)
same,GI50,DMS-114,> 100 µM (inactive)
same,GI50,SR,> 100 µM (inactive)
same,GI50,KM12,> 100 µM (inactive)
same,GI50,UACC-257,> 100 µM (inactive)
same,GI50,OVCAR-5,> 100 µM (inactive)
same,GI50,HOP-92,> 100 µM (inactive)
same,GI50,COLO 205,83.4 µM (inactive)
same,GI50,M14,> 100 µM (inactive)
same,GI50,786-0,> 100 µM (inactive)
same,GI50,A549,> 100 µM (inactive)
same,GI50,SK-MEL-28,> 100 µM (inactive)
same,GI50,CCRF-CEM,> 100 µM (inactive)
same,GI50,LXFL 529,> 100 µM (inactive)
same,GI50,UACC-62,> 100 µM (inactive)
same,GI50,HOP-18,> 100 µM (inactive)
same,GI50,LOX IMVI,> 100 µM (inactive)
same,GI50,NCI-H226,> 100 µM (inactive)
same,GI50,HT-29,> 100 µM (inactive)
same,GI50,HCT-116,83.9 µM (inactive)
same,GI50,NCI-H522,> 100 µM (inactive)
same,GI50,NCI-H460,> 100 µM (inactive)
same,GI50,RXF 393,> 100 µM (inactive)
same,GI50,KM-20L2,> 100 µM (inactive)
same,GI50,HCT-15,> 100 µM
same,GI50,HCC 2998,> 100 µM (inactive)
same,GI50,SW-620,11.1 µM (inactive)
same,GI50,UO-31,> 100 µM (inactive)
same,GI50,HL-60,21.1 µM (inactive)
CCc1ccccc1NC(=O)CC1NC(=O)CS1 (configuration not stated),GI50,M19-MEL,> 100 µM (inactive)
same,GI50,U-251,> 100 µM (inactive)
same,GI50,SF-268,> 100 µM (inactive)
same,GI50,OVCAR-3,> 100 µM (inactive)
same,GI50,OVCAR-4,> 100 µM (inactive)
same,GI50,SNB-19,> 100 µM (inactive)
same,GI50,RXF 631,> 100 µM (inactive)
same,GI50,XF498,> 100 µM (inactive)
same,GI50,SN12C,> 100 µM (inactive)
same,GI50,K562,> 100 µM (inactive)
same,GI50,HOP-62,> 100 µM (inactive)
same,GI50,EKVX,> 100 µM (inactive)
same,GI50,TK-10,> 100 µM (inactive)
same,GI50,SK-MEL-5,> 100 µM (inactive)
same,GI50,MOLT-4,> 100 µM (inactive)
same,GI50,SNB-75,37.5 µM (inactive)
same,GI50,A498,> 100 µM (inactive)
same,GI50,IGROV-1,> 100 µM (inactive)
same,GI50,NCI-H23,> 100 µM (inactive)
same,GI50,SF-539,> 100 µM (inactive)
same,GI50,OVCAR-8,> 100 µM (inactive)
same,GI50,SK-OV-3,> 100 µM (inactive)
same,GI50,SNB-78,> 100 µM (inactive)
same,GI50,DMS-273,> 100 µM (inactive)
same,GI50,DLD-1,> 100 µM (inactive)
same,GI50,RPMI-8226,> 100 µM (inactive)
same,GI50,CAKI-1,> 100 µM (inactive)
same,GI50,SF-295,> 100 µM (inactive)
same,GI50,Malme-3M,55.2 µM (inactive)
same,GI50,SK-MEL-2,> 100 µM (inactive)
same,GI50,DMS-114,> 100 µM (inactive)
same,GI50,KM12,> 100 µM (inactive)
same,GI50,UACC-257,> 100 µM (inactive)
same,GI50,OVCAR-5,> 100 µM (inactive)
same,GI50,HOP-92,> 100 µM (inactive)
same,GI50,COLO 205,> 100 µM (inactive)
same,GI50,M14,> 100 µM (inactive)
same,GI50,786-0,> 100 µM (inactive)
same,GI50,A549,> 100 µM (inactive)
same,GI50,SK-MEL-28,> 100 µM (inactive)
same,GI50,CCRF-CEM,> 100 µM (inactive)
same,GI50,LXFL 529,> 100 µM (inactive)
same,GI50,UACC-62,> 100 µM (inactive)
same,GI50,HOP-18,> 100 µM (inactive)
same,GI50,LOX IMVI,> 100 µM (inactive)
same,GI50,NCI-H226,> 100 µM (inactive)
same,GI50,HCT-116,> 100 µM (inactive)
same,GI50,NCI-H522,> 100 µM (inactive)
same,GI50,NCI-H460,> 100 µM (inactive)
same,GI50,RXF 393,> 100 µM (inactive)
same,GI50,KM-20L2,> 100 µM (inactive)
same,GI50,HCC 2998,> 100 µM (inactive)
same,GI50,SW-620,> 100 µM (inactive)
same,GI50,UO-31,> 100 µM (inactive)
same,GI50,HL-60,> 100 µM (inactive)
COc1cc2c(cc1O)C1C(O)C(O)C=C3CCN(C2)C31 (configuration not stated),GI50,M19-MEL,2.72 µM (inactive)
same,GI50,U-251,2.98 µM (inactive)
same,GI50,SF-268,2.2 µM (inactive)
same,GI50,OVCAR-3,2.67 µM (inactive)
same,GI50,OVCAR-4,1.38 µM (inactive)
same,GI50,SNB-19,1.39 µM (inactive)
same,GI50,ACHN,1.85 µM (inactive)
same,GI50,RXF 631,2.97 µM (inactive)
same,GI50,XF498,1.36 µM (inactive)
same,GI50,SN12C,2.84 µM (inactive)
same,GI50,K562,2.51 µM (inactive)
same,GI50,HOP-62,2.92 µM (inactive)
same,GI50,EKVX,3.84 µM (inactive)
same,GI50,TK-10,2.65 µM (inactive)
same,GI50,SK-MEL-5,1.46 µM (inactive)
same,GI50,MOLT-4,3.15 µM (inactive)
same,GI50,SNB-75,2.65 µM (inactive)
same,GI50,IGROV-1,2.74 µM (inactive)
same,GI50,NCI-H23,2.13 µM (inactive)
same,GI50,SF-539,2.09 µM (inactive)
same,GI50,OVCAR-8,2.05 µM (inactive)
same,GI50,SK-OV-3,4.11 µM (inactive)
same,GI50,SNB-78,0.565 µM (active)
same,GI50,DMS-273,1.95 µM (inactive)
same,GI50,DLD-1,2.47 µM (inactive)
same,GI50,RPMI-8226,3.58 µM (inactive)
same,GI50,CAKI-1,1.9 µM (inactive)
same,GI50,SF-295,2.31 µM (inactive)
same,GI50,Malme-3M,0.587 µM (active)
same,GI50,SK-MEL-2,1.83 µM (inactive)
same,GI50,DMS-114,1.09 µM (active)
same,GI50,SR,2.08 µM (inactive)
same,GI50,KM12,2.05 µM (inactive)
same,GI50,UACC-257,2.67 µM (inactive)
same,GI50,OVCAR-5,4.39 µM (inactive)
same,GI50,HOP-92,1.16 µM (inactive)
same,GI50,COLO 205,1.44 µM (inactive)
same,GI50,M14,1.79 µM (inactive)
same,GI50,786-0,2.39 µM (inactive)
same,GI50,A549,2.11 µM (inactive)
same,GI50,SK-MEL-28,2.76 µM (inactive)
same,GI50,CCRF-CEM,3.65 µM (inactive)
same,GI50,LXFL 529,3.18 µM (inactive)
same,GI50,UACC-62,1.69 µM (inactive)
same,GI50,HOP-18,2.43 µM (inactive)
same,GI50,LOX IMVI,0.76 µM (active)
same,GI50,NCI-H226,2.55 µM (inactive)
same,GI50,HT-29,3.17 µM (inactive)
same,GI50,HCT-116,0.158 µM (active)
same,GI50,NCI-H522,1.8 µM (inactive)
same,GI50,NCI-H460,1.83 µM (inactive)
same,GI50,RXF 393,1.45 µM (inactive)
same,GI50,KM-20L2,2.34 µM (inactive)
same,GI50,HCT-15,3.61 µM
same,GI50,HCC 2998,2.4 µM (inactive)
same,GI50,SW-620,2.49 µM (inactive)
same,GI50,UO-31,2.77 µM (inactive)
same,GI50,HL-60,2.66 µM (inactive)
